{"source": "patent EP4813403A1", "about": "“USE OF GLP-1R/GIPR DOUBLE-TARGET AGONIST IN PREPARING ANIMAL DRUG” (Hangzhou Zhongmeihuadong Pharmaceutical Co., Ltd., priority 2023, dated 2025)", "key": {"rat GLP-1R": {"target": "T1, rat GLP-1R (Rattus norvegicus, UniProt P32301)", "T1 construct": "expressed in transfected cells", "T1 sequence (P32301 22-463)": "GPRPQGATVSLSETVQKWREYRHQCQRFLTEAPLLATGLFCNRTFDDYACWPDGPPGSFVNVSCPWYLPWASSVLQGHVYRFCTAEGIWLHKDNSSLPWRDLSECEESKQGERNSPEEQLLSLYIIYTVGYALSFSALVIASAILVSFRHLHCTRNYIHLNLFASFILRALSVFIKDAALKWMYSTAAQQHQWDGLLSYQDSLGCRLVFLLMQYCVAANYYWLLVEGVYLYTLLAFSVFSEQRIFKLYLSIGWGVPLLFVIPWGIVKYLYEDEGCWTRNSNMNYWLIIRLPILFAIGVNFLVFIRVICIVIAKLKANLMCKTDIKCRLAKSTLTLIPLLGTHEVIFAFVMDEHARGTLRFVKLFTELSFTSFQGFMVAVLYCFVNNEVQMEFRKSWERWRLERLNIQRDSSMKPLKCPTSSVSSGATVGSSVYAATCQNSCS", "assay": "Agonistic activity on GLP-1R of different species (LANCE Ultra cAMP assay): rat", "format": "cell-based", "conditions": "ratio of EC50 value of other species to human EC50 value"}, "rat GIPR": {"target": "T2, rat GIPR (Rattus norvegicus, UniProt P43219)", "T2 construct": "expressed in transfected cells; host or cells: CHO-K1 (transient)", "T2 sequence (P43219 19-455)": "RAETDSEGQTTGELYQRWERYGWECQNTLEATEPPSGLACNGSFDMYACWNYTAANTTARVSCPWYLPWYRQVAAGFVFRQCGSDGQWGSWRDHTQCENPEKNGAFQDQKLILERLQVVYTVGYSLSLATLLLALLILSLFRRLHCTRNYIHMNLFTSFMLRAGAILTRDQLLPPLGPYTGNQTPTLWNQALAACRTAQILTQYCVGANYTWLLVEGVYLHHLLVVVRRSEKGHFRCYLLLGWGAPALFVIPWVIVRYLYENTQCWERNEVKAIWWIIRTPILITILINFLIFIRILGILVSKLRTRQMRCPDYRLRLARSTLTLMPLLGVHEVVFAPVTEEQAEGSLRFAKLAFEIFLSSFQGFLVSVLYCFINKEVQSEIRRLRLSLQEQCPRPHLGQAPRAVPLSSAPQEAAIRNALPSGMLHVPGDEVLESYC", "assay": "Agonistic activity on GIPR of different species (LANCE Ultra cAMP assay): rat", "format": "cell-based", "conditions": "ratio of EC50 value of other species to human EC50 value"}}, "data": [{"smiles": "CC[C@H](C)[C@H](NC(=O)C(C)(C)NC(=O)[C@H](Cc1ccc(O)cc1)NC(=O)[C@H](CC(=O)O)NC(=O)[C@H](CO)NC(=O)[C@@H](NC(=O)C(C)(Cc1ccccc1)NC(=O)[C@@H](NC(=O)CNC(=O)[C@H](CCC(=O)O)NC(=O)C(C)(C)NC(=O)[C@@H](N)Cc1ccc(O)cc1)[C@@H](C)O)[C@@H](C)O)C(=O)NC(C)(C)C(=O)N[C@@H](CC(C)C)C(=O)N[C@@H](CC(=O)O)C(=O)N[C@@H](CCCCN)C(=O)N[C@@H](CCC(N)=O)C(=O)N[C@@H](C)C(=O)N[C@@H](CCC(N)=O)C(=O)N[C@@H](C)C(=O)N[C@@H](CCC(=O)O)C(=O)N[C@@H](Cc1ccccc1)C(=O)N[C@H](C(=O)N[C@@H](CCCCNC(=O)COCCOCCNC(=O)COCCOCCNC(=O)COCCOCCNC(=O)CC[C@H](NC(=O)CCCCCCCCCCCCCCCCCCCCC(=O)O)C(=O)O)C(=O)N[C@@H](Cc1c[nH]c2ccccc12)C(=O)N[C@@H](CC(C)C)C(=O)N[C@@H](CC(C)C)C(=O)N[C@@H](CCCCN)C(=O)NCC(=O)NCC(=O)N1CCC[C@H]1C(=O)N[C@@H](CO)C(=O)N[C@@H](CO)C(=O)NCC(=O)N[C@@H](C)C(=O)N1CCC[C@H]1C(=O)N1CCC[C@H]1C(=O)N1CCC[C@H]1C(=O)N[C@@H](CO)C(=O)N[C@@H](CCCCN)C(N)=O)C(C)C", "note": "(some centres unmarked) [Compound P016]", "values": [{"measurement": "GLP-1R EC50 ratio", "setting": "rat GLP-1R", "value": 1.59}, {"measurement": "GIPR EC50 ratio", "setting": "rat GIPR", "value": 2.22}]}]}
